Tests used:
BiNanH2 [1] = biological target: T1, BiNanH2 (Bifidobacterium longum, UniProt A0ACD7UU12); experiment: HPLC-based kinetic study of BiNanH2; assay type: biochemical, Bifidobacterium infantis; settings: for kcat: BiNanH2, apparent, NaOAc buffer pH 5.0, 37° C., 10 min, spread and × 10^2 on wrapped line below; for activity of BiNanH2 towards the substrate: kinetic study, HPLC
T1 sequence (A0ACD7UU12 1-394): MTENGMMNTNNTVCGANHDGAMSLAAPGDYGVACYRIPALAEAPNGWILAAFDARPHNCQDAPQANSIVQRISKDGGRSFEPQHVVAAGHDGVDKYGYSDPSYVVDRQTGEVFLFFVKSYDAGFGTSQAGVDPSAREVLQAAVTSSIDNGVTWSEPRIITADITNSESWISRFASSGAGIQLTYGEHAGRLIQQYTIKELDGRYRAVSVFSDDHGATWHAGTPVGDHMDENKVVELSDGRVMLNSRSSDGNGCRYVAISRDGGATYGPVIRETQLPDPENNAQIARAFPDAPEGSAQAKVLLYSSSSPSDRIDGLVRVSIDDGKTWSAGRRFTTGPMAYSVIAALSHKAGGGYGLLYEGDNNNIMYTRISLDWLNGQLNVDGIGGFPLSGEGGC
Procedure: (§1) HPLC-based assays were carried out as described above for microtiter plate-based assays. The reactions were stopped by adding 40 μL of pre-chilled ethanol. The mixtures were then centrifuged and the supernatants were analyzed by Agilent 1290 Infinity HPLC system at 315 nm. […] A C18 reverse phase Rapid Resolution High Definition column (EclipsePlusC18 RRHD 1.8 μm, 2.1×50 mm, Agilent) was used for analyzing samples with Neu5Ac9NAcα2-3GalβpNP (2.1) or Neu5,9Ac2α2-6GalβpNP (2.20).
The reactions were stopped by adding 40 μL of pre-chilled ethanol. The mixtures were then centrifuged and the supernatants were analyzed by the HPLC system described above for HPLC-based assays. Apparent kinetic parameters were obtained by varying substrate concentrations from 0.1-40 mM (0.1, 0.2, 0.4, 1, 2, 4, 10, 20, and 40 mM) and fitting the data (the average values of duplicate assay results) into the Michaelis-Menten equation using Grafit 5.0.

SpNanC [2] = biological target: T2, SpNanC (Streptococcus pneumoniae, UniProt A0A0H2UQE4); experiment: HPLC-based kinetic study of SpNanC; assay type: biochemical; settings: for kcat: SpNanC, apparent, MES buffer pH 6.5, 37° C., 10 min, spread and × 10^2 on wrapped line below
Procedure: as §1
After stopping the reactions by adding 40 μL of pre-chilled ethanol, the mixtures were centrifuged and the supernatants were analyzed by the HPLC system as described above. Apparent kinetic parameters were obtained by varying substrate concentrations from 0.1-40 mM (0.1, 0.2, 0.4, 1, 2, 4, 10, 20, and 40 mM) and fitting the data (the average values of duplicate assay results) into the Michaelis-Menten equation using Grafit 5.0.

[3] = biological target: T3, human cytosolic sialidase hNEU2 (Homo sapiens, UniProt Q9Y3R4); experiment: Sialidase substrate specificity of Leg glycosides (HPLC/capillary electrophoresis), hNEU2; assay type: biochemical; settings: 37° C., 16 hs, pH 5.0
T3 construct: made in house

A. ureafaciens sialidase = experiment: Sialidase substrate specificity of Leg glycosides (HPLC/capillary electrophoresis), A. ureafaciens sialidase; assay type: biochemical, Arthrobacter ureafaciens; settings: pH 5.5
V. cholerae sialidase = biological target: T4, V. cholerae sialidase (Vibrio cholerae serotype O1, UniProt P0C6E9); experiment: Sialidase substrate specificity of Leg glycosides (HPLC/capillary electrophoresis), V. cholerae sialidase; assay type: biochemical; settings: pH 5.5
T4 construct: purchased Roche

[4] = biological target: C. perfringens sialidase (CpNanH) (Clostridium perfringens, UniProt P10481); assay type: biochemical; settings: 37° C., 16 hs, pH 5.0
BiNanH2 [5] = biological target: T1, BiNanH2; experiment: Sialidase substrate specificity of Leg glycosides (HPLC/capillary electrophoresis), BiNanH2; assay type: biochemical, Bifidobacterium infantis; settings: 37° C., 16 hs, pH 5.0
SpNanA = biological target: T5, SpNanA (Streptococcus pneumoniae, UniProt P62575); experiment: Sialidase substrate specificity of Leg glycosides (HPLC/capillary electrophoresis), SpNanA; assay type: biochemical; settings: 37° C., 16 hs, pH 6.0
T5 construct: made in house

SpNanB = biological target: T6, SpNanB (Streptococcus pneumoniae serotype 4, UniProt Q54727, E68D/K536E/K577E/N393D/S59P); experiment: Sialidase substrate specificity of Leg glycosides (HPLC/capillary electrophoresis), SpNanB; assay type: biochemical; settings: 37° C., 16 hs, pH 6.0
T6 construct: made in house

SpNanC [6] = biological target: T2, SpNanC; experiment: Sialidase substrate specificity of Leg glycosides (HPLC/capillary electrophoresis), SpNanC; assay type: biochemical; settings: 37° C., 16 hs, pH 6.5
[7] = substrate: CC(=O)N[C@@H]1C(O)C[C@](OC2C(O)[C@H](Oc3ccc([N+](=O)[O-])cc3)OC(CO)[C@@H]2O)(C(=O)O)OC1[C@H](NC(C)=O)[C@@H](C)O; experiment: Kinetic studies for PmST1 α2-3-sialidase activity (HPLC); assay type: biochemical, Pasteurella multocida; settings: other: PmST1, apparent, NaOAc buffer pH 5.5, CMP (0.4 mM), 37° C., 10 min
Procedure: (§2) Kinetic studies for PmST1 were performed in duplicates at 37° C. for 10 min. […] The reactions were stopped by adding 20 μL of pre-chilled ethanol. The mixtures were then centrifuged and the supernatants were analyzed by the HPLC system described above for sialidase substrate specificity studies assays. Apparent kinetic parameters were obtained by varying substrate concentrations from 0.1-40 mM (0.1, 0.2, 0.4, 1, 2, 4, 10, 20, and 40 mM) and fitting the data (the average values of duplicate assay results) into the Michaelis-Menten equation using Grafit 5.0.

[8] = substrate: CC(=O)N[C@H]1[C@H]([C@H](O)[C@H](O)CO)O[C@@](O[C@H]2[C@@H](O)[C@@H](CO)O[C@@H](Oc3ccc([N+](=O)[O-])cc3)[C@@H]2O)(C(=O)O)C[C@@H]1O; experiment: as above; assay type: biochemical, Pasteurella multocida; settings: other: PmST1, apparent, NaOAc buffer pH 5.5, CMP (0.4 mM), 37° C., 10 min
Procedure: as §2

T3 sequence (Q9Y3R4 whole entry): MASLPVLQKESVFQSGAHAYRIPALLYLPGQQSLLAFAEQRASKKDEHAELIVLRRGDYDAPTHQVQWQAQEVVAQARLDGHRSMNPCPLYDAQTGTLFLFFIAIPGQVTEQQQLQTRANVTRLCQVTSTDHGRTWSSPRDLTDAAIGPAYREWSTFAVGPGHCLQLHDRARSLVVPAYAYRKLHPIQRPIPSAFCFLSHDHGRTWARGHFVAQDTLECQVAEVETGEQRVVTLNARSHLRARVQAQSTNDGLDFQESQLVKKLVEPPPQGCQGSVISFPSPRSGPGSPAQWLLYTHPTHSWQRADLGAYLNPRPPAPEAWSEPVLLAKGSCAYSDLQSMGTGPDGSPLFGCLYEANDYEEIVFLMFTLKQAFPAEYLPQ

For `CC(=O)N[C@H]1[C@H]([C@H](O)[C@H](O)CO)O[C@@](OC[C@H]2O[C@@H](Oc3ccc([N+](=O)[O-])cc3)[C@H](O)[C@@H](O)[C@H]2O)(C(=O)O)C[C@@H]1O` [2.18, Neu5Acα2-6GalβpNP], the kcat (BiNanH2 [1]) was “(3.31 × 10^2 s^−1”.

In the case of `CC(=O)NC[C@@H](O)[C@@H](O)[C@@H]1O[C@@](OC[C@H]2O[C@@H](Oc3ccc([N+](=O)[O-])cc3)[C@H](O)[C@@H](O)[C@H]2O)(C(=O)O)C[C@H](O)[C@H]1NC(C)=O` [2.8, 4-Nitrophenyl O-(5,9-diacetamido-3,5,9-trideoxy-D-glycero-α-D-galacto-2-nonulopyranosylonic acid)-(2→6)-O-β-D-galactopyranoside], the kcat (BiNanH2 [1]) is reported as “(8.07 × 10^2 s^−1”.

`CC(=O)N[C@H]1[C@H]([C@H](O)[C@H](O)CO)O[C@@](O[C@H]2[C@@H](O)[C@@H](CO)O[C@@H](Oc3ccc([N+](=O)[O-])cc3)[C@@H]2O)(C(=O)O)C[C@@H]1O` [2.17, Neu5Acα2-3GalβpNP] was tested, and the kcat (SpNanC [2]) was “(3.65 × 10^2 s^−1” and the kcat (BiNanH2 [1]) was “(1.66 × 10^2 s^−1”.

`CC(=O)NC1C(O)CC(OCC2OC(Oc3ccc([N+](=O)[O-])cc3)C(O)C(O)C2O)(C(=O)O)OC1C(O)C(O)COC(C)=O` (stereo not drawn) [2.20, Neu5,9Ac2α2-6GalβpNP] was tested, and the “activity of BiNanH2 towards the substrate” value (BiNanH2 [1]) was “not high enough for obtaining apparent kinetics parameters”.

`C[C@@H](O)[C@@H](N=[N+]=[N-])C1O[C@@](OCC2O[C@@H](Oc3ccc([N+](=O)[O-])cc3)C(O)C(O)[C@H]2O)(C(=O)O)CC(O)[C@H]1N=[N+]=[N-]` (stereo partly drawn) [3-14, Leg5,7diN3α2-6GalβpNP] was tested, and the “activity of hNEU2 for the compound” value [3] was “did not show activity”, the “activity of A. ureafaciens sialidase for the compound” value (A. ureafaciens sialidase) was “did not show activity” and the “activity of V. cholerae sialidase for the compound” value (V. cholerae sialidase) was “did not show activity”. The “activity of C. perfringens sialidase (CpNanH) for the compound” value [4] was “did not show activity”, the “activity of BiNanH2 for the compound” value (BiNanH2 [5]) was “did not show activity” and the “activity of SpNanA for the compound” value (SpNanA) was “did not show activity”. For the same molecule, the “activity of SpNanB for the compound” value (SpNanB) was “did not show activity” and the “activity of SpNanC for the compound” value (SpNanC [6]) was “did not show activity”.

In the case of `CC(=O)NC[C@@H](O)[C@@H](O)[C@@H]1O[C@@](O[C@H]2[C@@H](O)[C@@H](CO)O[C@@H](Oc3ccc([N+](=O)[O-])cc3)[C@@H]2O)(C(=O)O)C[C@H](O)[C@H]1NC(C)=O` [2.1, 4-Nitrophenyl O-(5,9-diacetamido-3,5,9-trideoxy-D-glycero-α-D-galacto-2-nonulopyranosylonic acid)-(2→3)-O-β-D-galactopyranoside], the kcat (SpNanC [2]) is reported as “(3.38 × 10^2 s^−1” and the kcat (BiNanH2 [1]) is reported as “(1.08 × 10^2 s^−1”.

`CC(=O)N[C@@H]1C(O)C[C@](OCC2O[C@@H](Oc3ccc([N+](=O)[O-])cc3)C(O)C(O)[C@H]2O)(C(=O)O)OC1[C@H](NC(C)=O)[C@@H](C)O` (stereo partly drawn) [3-20, Leg5,7Ac2α2-6GalβpNP] was tested, and the “activity of hNEU2 for the compound” value [3] was “did not show activity”, the “activity of A. ureafaciens sialidase for the compound” value (A. ureafaciens sialidase) was “did not show activity” and the “activity of V. cholerae sialidase for the compound” value (V. cholerae sialidase) was “did not show activity”. The “activity of C. perfringens sialidase (CpNanH) for the compound” value [4] was “did not show activity”, the “activity of BiNanH2 for the compound” value (BiNanH2 [5]) was “did not show activity” and the “activity of SpNanA for the compound” value (SpNanA) was “did not show activity”. For the same molecule, the “activity of SpNanB for the compound” value (SpNanB) was “did not show activity” and the “activity of SpNanC for the compound” value (SpNanC [6]) was “did not show activity”.

With `CC(=O)N[C@H]1[C@H]([C@H](O)[C@H](O)COC(C)=O)O[C@@](O[C@H]2[C@@H](O)[C@@H](CO)O[C@@H](Oc3ccc([N+](=O)[O-])cc3)[C@@H]2O)(C(=O)O)C[C@@H]1O` [2.19, Neu5,9Ac2α2-3GalβpNP] the “catalytic efficiency of SpNanC, fold higher than for 2.1 and 2.17” value (SpNanC [2]; SpNanC kcat/KM ratio) was 2.2-2.3 fold, the kcat (SpNanC [2]) was “(3.78 × 10^2 s^−1” and the “activity of BiNanH2 towards the substrate” value (BiNanH2 [1]) was “not high enough for obtaining apparent kinetics parameters”.

B1: PmST1 (α2-3-sialidase activity) (Pasteurella multocida) (protein)
chain: KTITLYLDPASLPALNQLMDFTQNNEDKTHPRIFGLSRFKIPDNIITQYQNIHFVELKDNRPTEALFTILDQYPGNIELNIHLNIAHSVQLIRPILAYRFKHLDRVSIQQLNLYDDGSMEYVDLEKEENKDISAEIKQAEKQLSHYLLTGKIKFDNPTIARYVWQSAFPVKYHFLSTDYFEKAEFLQPLKEYLAENYQKMDWTAYQQLTPEQQAFYLTLVGFNDEVKQSLEVQQAKFIFTGTTTWEGNTDVREYYAQQQLNLLNHFTQAEGDLFIGDHYKIYFKGHPRGGEINDYILNNAKNITNIPANISFEVLMMTGLLPDKVGGVASSLYFSLPKEKISHIIFTSNKQVKSKEDALNNPYVKVMRRLGIIDESQVIFWDSLKQL
With B1 the Km [7] was 17.38 ± 0.70 mM, the kcat [7] was 1.16 ± 0.0217 s⁻¹ and the kcat/Km [7] was 66.7 M⁻¹ s⁻¹. For the same molecule, the Km [8] was 4.73 ± 0.31 mM, the kcat [8] was 9.26 ± 0.185 s⁻¹ and the kcat/Km [8] was 1950 M⁻¹ s⁻¹.
